Results published in patent US20240389593A1, “HETEROCYCLIC COMPOUND AND USE THEREOF” (KUMIAI CHEMICAL INDUSTRY CO., LTD., priority 2021, published 2024).

Assays:
Assay type in all cases: in vivo
Aphis gossypii = test: Test on pest control effect in Aphis gossypii (cucumber nursery plant dip); conditions: 72 h, 500 ppm active ingredient (wettable powder diluted with water), cucumber nursery plants inoculated with larvae dipped, 25° C., 3 days after treatment
Experimental: [Test example 4] Test on pest control effect in Aphis gossypii A wettable powder prepared according to formulation example 2 was diluted with water to a concentration of 500 ppm as the active ingredient. Some nursery plant of cucumber previously inoculated with larvae of Aphis gossypii were dipped in the drug solution and air-dried. The treated nursery plants of cucumber were placed in a room at constant temperature of 25° C. The number of surviving insects was counted at 3 days after the treatment. Mortality rate was calculated using the formula 1. The number of replication was one in each test.

Plutella xylostella = test: Test on insecticidal activity in Plutella xylostella (cabbage leaf dip); conditions: foliar, 144 h, 500 ppm active ingredient (wettable powder diluted with water), cabbage leaves dipped, second-instar larvae, 25° C., 6 days after treatment
Experimental: (§1) A wettable powder prepared according to formulation example 2 was diluted with water to a concentration of 500 ppm as the active ingredient. Some cabbage leaves were dipped in the drug solution, air-dried, and then placed in a plastic cup. Ten second-instar larvae of Plutella xylostella were put on the treated leaves, and the cup was covered with a lid. Then, it was placed in a room at constant temperature of 25° C. The number of dead insects was investigated at 6 days after treatment. Mortality rate was calculated using the formula 1. The number of replication was one in each test.

Helicoverpa armigera = test: Test on insecticidal activity in Helicoverpa armigera (cabbage leaf dip); conditions: foliar, 144 h, 500 ppm active ingredient (wettable powder diluted with water), cabbage leaves dipped, hatching larvae, 25° C., 6 days after treatment
Experimental: as §1, with “Five hatching” for “Ten second-instar”, “Helicoverpa armigera” for “Plutella xylostella”, “after the” for “after”, “two” for “one”

Nilaparvata lugens = test: Test on insecticidal activity in Nilaparvata lugens (rice sprout dip); conditions: 144 h, 500 ppm active ingredient (wettable powder diluted with water), rice sprouts dipped, second-instar larvae, 25° C., 6 days after treatment
Experimental: A wettable powder prepared according to formulation example 2 was diluted with water to a concentration of 500 ppm as the active ingredient. Some rice sprouts were dipped in the drug solution and placed in a plastic cup. Ten second-instar larvae of Nilaparvata lugens were put on the treated leaves, and the cup was covered with a lid. Then, it was placed in a constant room temperature of 25° C. The number of dead insects was investigated at 6 days after the treatment. Mortality rate was calculated using the formula 1. The number of replication was one in each test.

Measured: mortality at 500 ppm

CCS(=O)(=O)c1c(-n2cc(OCC(F)(F)C(F)(F)C(F)(F)F)cn2)nc2ccc(C3CC3)cn12 [A-0049, 6-cyclopropyl-3-(ethylsulfonyl)-2-[4-(2,2,3,3,4,4,4-heptafluorobutoxy)-1H-pyrazol-1-yl] imidazo [1,2-a] pyridine]
≥ 90%: all assays above

CCS(=O)(=O)c1c(-n2cc(OCC(F)(F)C(F)(F)C(F)(F)F)cn2)nc2ccc(Br)cn12 [A-0039, 6-bromo-3-(ethylsulfonyl)-2-[4-(2,2,3,3,4,4,4-heptafluorobutoxy)-1H-pyrazol-1-yl] imidazo [1,2-a] pyridine]
≥ 90%: all assays above

CCS(=O)(=O)c1c(-n2cc(OCC(F)(F)C(F)(F)C(F)(F)F)cn2)nc2ccc(C(F)(F)F)cn12 [A-0046, 3-(ethylsulfonyl)-2-[4-(2,2,3,3,4,4,4-heptafluorobutoxy)-1H-pyrazol-1-yl]-6-(trifluoromethyl)imidazo[1,2-a]pyridine]
≥ 90%: all assays above
